Test [1] relates to Human umbilical vein endothelial cells (HUVEC). Kind of test: OGD-R injury model, LDH detection, HUVEC. In kind it is cell-based. The note with it: OGD 4 hours, restoration 24 hours, 1, 3, 10 μM, prophylactic (1 hour before OGD) or therapeutic (at restoration). The protocol:
HUVEC cells were cultured in modified DMEM medium containing 10% fetal bovine serum. When the cells reached about 80% confluence, the cells were digested with 0.25% trypsin, and then pipetted evenly with modified DMEM containing 10% fetal bovine serum. The cell concentration was adjusted to 1×10^5 cells/mL, and the cells were seeded at 400 uL/well in a 24-well plate, and the experiment was carried out when the cells grew to about 70% confluence. RAOEC cells were cultured in high-glucose DMEM medium containing 10% fetal bovine serum, and the seeding conditions were the same as those for HUVECs.
The hypoxia workstation was set to have an oxygen concentration of 1% (1% O2, 5% CO2, 94% N2), a temperature of 37° C., and a humidity of 85%. A sugar-free DMEM medium was placed in the hypoxia workstation for pre-hypoxia for 3 hours. The medium in the culture plate was aspirated, and the plate was washed twice with preheated sugar-free DMEM medium, and 100 uL of sugar-free DMEM medium was added to each well. […]
At the end of the experiment, 50 uL of medium was taken from each well into a 96-well plate, and then cytotoxicity was detected according to the operating instructions of the LDH detection kit. The results were calculated as follows: […]

The test system of a further test is HPAEpiC cells. Kind of test: LPS+hypoxia model, LDH release, alveolar epithelial cells. In kind it is cell-based, human. The protocol:
HPAEpiC cells were cultured with alveolar epithelial cell medium. When the cells grew to about 80% confluence, the cells were digested with 0.25% trypsin, and then pipetted evenly with alveolar epithelial cell medium. The cell concentration was adjusted to 2×10^5 cells/mL, and the cells were seeded in a 24-well plate at 400 uL/well. The experiment was conducted when the cells grew to about 70% confluence.
The hypoxia workstation was set to have an oxygen concentration of 1% (1% O2, 5% CO2, 94% a temperature to 37° C., and a humidity of 85%. After the conditions in the hypoxia workstation were stable, 1 mg/mL LPS was directly added to the cells to make the final concentration of LPS […], and then the cells were cultured in the hypoxia workstation for 24 hours.
Before being subjected to the model, the cells in the drug group were pre-incubated with vehicle (20% hydroxypropyl cyclodextrin solution) or drug (the final concentration of YC-6 was 1 μM, 5 μM, 10 μM) for 1 hour, and then added with LPS, and placed in the hypoxia workstation for constructing the model, until the end of the experiment. The model control group was not treated with any drug, and the normal group was placed in a cell incubator for routine culturing. 10 μM dexamethasone was used as the drug control. Three replicates were performed for each treatment group.
In general terms: Release of lactate dehydrogenase indicates damage to the cell membrane.

For the next test, the system named is NR4A3. Kind of test: NR4A3/CD31 immunofluorescence of lung tissue, acute hypobaric hypoxia. In kind it is in vivo, Macaca fascicularis. As to the method:
Paraffin sections of Macaca fascicularis lung tissue, include 3 in the normal control group (normobaric normoxia, NN), 5 in the acute hypobaric hypoxia treatment group (hypobaric hypoxia, HH), and 5 in the acute hypobaric hypoxia+YC-6 treatment group (HH+YC-6).
The paraffin sections were placed in a 65° C. oven for 30 minutes, and then quickly transferred to 100% xylene for dewaxing, and then subjected to rehydration according to the regular process (100% xylene, 5 min—100% xylene, 2 min—100% xylene, 2 min—100% ethanol, 1 min—100% ethanol, 1 min—95% ethanol, 1 min—90% ethanol, 1 min—B0% ethanol, 1 min—70% ethanol, 1 min—50% ethanol, 1 min—distilled water, 1 min×3), and then EDTA antigen retrieval solution (microwave heating) was used for antigen retrieval. After the retrieval, it was naturally cooled to room temperature, and then washed three times with PBS for 5 minutes each time. The residual PBS on the tissue section was removed. A circle was drew around the tissue with an immunohistochemical pen, and then the corresponding primary antibody diluted in DAKO antibody diluent was added to the tissue to make it completely cover the tissue. The tissue section was incubated overnight in a humidified chamber at 4° C. Then it was washed 3 times with PBS for 5 minutes each time. […]

The values below come from US12594282B2, “Use of small molecule compounds in the treatment of diseases mediated by lung epithelial cell injury and/or vascular endothelial cell injury” (Guangzhou Cellprotek Pharmaceutical Co., Ltd., priority 2020, dated 2026).

As to `C[C@@]12CCCC1C1C[C@@H](O)[C@]3(O)C[C@@H](O)CC[C@]3(C)C1CC2` (stereo partly drawn) [YC-6, 5α-androst-3β,5,6β-triol], the “OGD-R-induced increase in LDH release” value in test [1] is on record as “significantly reduced the OGD-R-induced increase in LDH release in a dose-dependent manner”. Moreover, in the test with HPAEpiC cells (10 μM, LPS and 1% O2 for 24 hours), the “protective effect compared with 10 μM dexamethasone (LDH release)” value was “significantly better protective effect than dexamethasone”. Moreover, the “damage to alveolar epithelial cells (LDH release) induced by hypoxia and LPS” value in the test on HPAEpiC cells (1, 5, 10 μM, 1 hour pre-incubation, 20 μg/mL LPS and 1% O2 for 24 hours) is “dose-dependently reduce damage to alveolar epithelial cells”. Besides, the “NR4A3 protein expression in lung tissue endothelial cells” value in the test with NR4A3 (NR4A3 co-localized with CD31, immunofluorescence) is “significantly increased the protein expression of NR4A3”. Further, in the test on NR4A3 (immunofluorescence), the “expression of vascular endothelial cell marker CD31 in lung tissue” value was “inhibited the down-regulation of the expression of vascular endothelial cell marker CD31”.
